Data: US7592366B2, “Therapeutic compounds” (Allergan, Inc., priority 2006, dated 2009)

Tests used:
EP2 [1] = target: T1, EP2 (Homo sapiens, UniProt P43116); experiment: cAMP assay, EP2; type: cell-based; parameters: expressed in transfected cells; host or cells: HEK-EBNA; conditions: HEK-EBNA cells expressing EP2
Method: A 384-well drug plate was prepared to contain 6 test compounds, PGE2 and cAMP in 16 serial dilutions in triplicate, using a Biomek station. HEK-EBNA cells expressing a target PG receptor subtype (EP2 or EP4) were suspended in a stimulation buffer (HBSS, 0.1% BSA, 0.5 mM IBMX and 5 mM HEPES, pH 7.4) in a density of 10^4 cells/5 μl. The reaction was initiated by mixing 5 μL drug dilutions with 5 μl of HEK-EBNA cells in a well, carried out for 30 min at room temperature, and followed by the addition of 5 μl anti-cAMP acceptor beads in the control buffer with Tween-20 (25 mM NaCl, 0.03% Tween-20, 5 mM HEPES, pH7.4). After 30 min in the dark at room temperature, the mixtures were incubated with 15 μl biotinylated-cAMP/strepavidin donor beads in Lysis/Detection buffer (0.1% BSA, 0.3% Tween-20 and 5 mM HEPES, pH7.4) for 45 min at the room temperature. Fluorescence changes were read using a Fusion-alpha HT microplate reader.

hEP2/Gqs5 = target: T2, hEP2/Gqs5 (Homo sapiens, UniProt P43116); experiment: FLIPR calcium signal, EP2; type: cell-based; conditions: HEK-293(EBNA) cells
T2 construct: expressed in transfected cells; host or cells: HEK-293(EBNA)
Method: (§1) HEK-293(EBNA) cells, stably expressing one type or subtype of recombinant human prostaglandin receptors (prostaglandin receptors expressed: hDP/Gqs5; hEP1; hEP2/Gqs5; hEP3A/Gqi5; hEP4/Gqs5; hFP; hIP; hTP), were cultured in 100 mm culture dishes in high-glucose DMEM medium containing 10% fetal bovine serum, 2 mM l-glutamine, 250 μg/ml geneticin (G418) and 200 μg/ml hygromycin B as selection markers, and 100 units/ml penicillin G, 100 μg/ml streptomycin and 0.25 μg/ml amphotericin B.
(§2) Cells were seeded at a density of 5×10^4 cells per well in Biocoat® Poly-D-lysine-coated black-wall, clear-bottom 96-well plates (Becton-Dickinson) and allowed to attach overnight in an incubator at 37° C. Cells were then washed two times with HBSS-HEPES buffer (Hanks Balanced Salt Solution without bicarbonate and phenol red, 20 mM HEPES, pH 7.4) using a Denley Cellwash plate washer (Labsystems). After 45 minutes of dye-loading in the dark, using the calcium-sensitive dye Fluo-4 […] at a final concentration of 2 μM, plates were washed four times with HBSS-HEPES buffer to remove excess dye leaving 100 μl in each well. Plates were re-equilibrated to 37° C. for a few minutes.
(§3) Cells were excited with an Argon laser at 488 nm, and emission was measured through a 510-570 nm bandwidth emission filter (FLIPR™, Molecular Devices, Sunnyvale, Calif.). Drug solution was added in a 50 μl volume to each well to give the desired final concentration. The peak increase in fluorescence intensity was recorded for each well. On each plate, four wells each served as negative (HBSS-HEPES buffer) and positive controls (standard agonists: BW245C (hDP); PGE2 (hEP1; hEP2/Gqs5; hEP3A/Gqi5; hEP4/Gqs5); PGF2α (hFP); carbacyclin (hIP); U-46619 (hTP), depending on receptor). The peak fluorescence change in each drug-containing well was then expressed relative to the controls.
(§4) Compounds were tested in a high-throughput (HTS) or concentration-response (CoRe) format. In the HTS format, forty-four compounds per plate were examined in duplicates at a concentration of 10^−5 M. To generate concentration-response curves, four compounds per plate were tested in duplicates in a concentration range between 10^−5 and 10^−11 M. The duplicate values were averaged. In either, HTS or CoRe format each compound was tested on at least 3 separate plates using cells from different passages to give an n≧3.

hTP = target: T3, hTP (Homo sapiens, UniProt P21731); experiment: FLIPR calcium signal, hTP; type: cell-based; conditions: read-out: Other Receptors (EC50 in nM) hTP
T3 construct: expressed in transfected cells; host or cells: HEK-293(EBNA)
T3 sequence (P21731 1-343): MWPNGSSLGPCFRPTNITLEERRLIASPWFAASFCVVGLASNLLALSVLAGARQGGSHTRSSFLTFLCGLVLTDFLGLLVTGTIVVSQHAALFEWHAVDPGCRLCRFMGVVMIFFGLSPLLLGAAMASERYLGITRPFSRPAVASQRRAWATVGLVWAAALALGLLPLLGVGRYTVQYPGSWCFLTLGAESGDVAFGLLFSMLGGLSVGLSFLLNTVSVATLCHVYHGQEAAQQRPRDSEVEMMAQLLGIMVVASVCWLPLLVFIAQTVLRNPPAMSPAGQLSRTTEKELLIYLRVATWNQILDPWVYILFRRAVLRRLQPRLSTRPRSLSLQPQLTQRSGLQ
Method: as §1, §2, §3
Compounds were tested in a high-throughput (HTS) or concentration-response (CoRe) format. […]

EP2 [2] = target: T1, EP2; experiment: Competition binding [3H]PGE2, EP2 Ki; parameters: expressed in transfected cells; host or cells: HEK 293; conditions: [3H]PGE2 competition, HEK 293 cells expressing human EP2
Method: Competition binding experiments were performed in a medium containing Hank's balanced salt solution, Hepes 20 mM, pH 7.3, membranes (˜60 μg protein) or 2×10^5 cells from HEK 293 cells stably expressing human EP2 receptors, [^3H]PGE2 (10 nM) and various concentrations of test compounds in a total volume of 300 μl. Reaction mixtures were incubated at 23° C. for 60 min, and were filtered over Whatman GF/B filters under vacuum. Filters were washed three times with 5 ml ice-cold buffer containing 50 mM Tris/HCl (pH 7.3). Non-specific binding was estimated in the presence of excess unlabeled PGE2 (10 μM). Binding data fitted to the binding model for a single class of binding sites, using nonlinear regression analysis. IC50 values thus obtained were converted to Ki using the equation of Ki=(IC50/(1+[L]/KD) where [L] represents PGE2 concentration (10 nM) and KD the dissociation constant for [^3H]PGE2 at human EP2 receptors (40 nM).
(§5) HEK-293 cells stably expressing the human or feline FP receptor, or EP1, EP2, or EP4 receptors were washed with TME buffer, scraped from the bottom of the flasks, and homogenized for 30 sec using a Brinkman PT 10/35 polytron. TME buffer was added to achieve a final 40 ml volume in the centrifuge tubes (the composition of TME is 100 mM TRIS base, 20 mM MgCl2, […]; 10N HCl is added to achieve a pH of 7.4).
(§6) The cell homogenate was centrifuged at 19000 r.p.m. for 20 min at 4° C. using a Beckman Ti-60 rotor. The resultant pellet was resuspended in TME buffer to give a final 1 mg/ml protein concentration, as determined by Biorad assay. Radioligand binding competition assays vs. [^3H-]17-phenyl PGF2α (5 nM) were performed in a 100 μl volume for 60 min. Binding reactions were started by adding plasma membrane fraction. The reaction was terminated by the addition of 4 ml ice-cold TRIS-HCl buffer and rapid filtration through glass fiber GF/B filters using a Brandel cell harvester. The filters were washed 3 times with ice-cold buffer and oven dried for one hour.
(§7) [^3H-] PGE2 (specific activity 180 Ci mmol) was used as the radioligand for EP receptors. [^3H] 17-phenyl PGF2α was employed for FP receptor binding studies. Binding studies employing EP1, EP2, EP4 and FP receptors were performed in duplicate in at least three separate experiments. A 200 μl assay volume was used. Incubations were for 60 min at 25° C. and were terminated by the addition of 4 ml of ice-cold 50 mM TRIS-HCl, followed by rapid filtration through Whatman GF/B filters and three additional 4 ml washes in a cell harvester (Brandel). Competition studies were performed using a final concentration of 5 nM [^3H]-PGE2, or 5 nM [^3H] 17-phenyl PGF2α and non-specific binding determined with 10^−5M of unlabeled PGE2, or 17-phenyl PGF2α, according to receptor subtype studied.

hEP4/Gqs5 = target: T4, hEP4/Gqs5 (Homo sapiens, UniProt P35408); experiment: FLIPR calcium signal, EP4; type: cell-based; conditions: HEK-293(EBNA) cells
T4 construct: expressed in transfected cells; host or cells: HEK-293(EBNA)
Method: as §1, §2, §3, §4

EP4 receptors = target: T5, EP4 receptors (Homo sapiens, UniProt P35408); experiment: Radioligand binding [3H]PGE2, EP4 Ki; conditions: [3H]PGE2 competition, HEK-293 cells expressing EP4
T5 construct: expressed in transfected cells; host or cells: HEK-293
Method: as §5, §6, §7

normotensive dogs = experiment: Intraocular pressure and ocular surface hyperemia in normotensive dogs; type: in vivo, dog; parameters: scale not given here
Text: U.S. Pat. No. 7,091,231 describes the methods used for these in vivo tests.

hDP/Gqs5 = target: T6, hDP/Gqs5 (Homo sapiens, UniProt Q13258); experiment: FLIPR calcium signal, hDP; type: cell-based; conditions: read-out: Other Receptors (EC50 in nM) hDP
T6 construct: expressed in transfected cells; host or cells: HEK-293(EBNA)
T6 sequence (Q13258 1-359): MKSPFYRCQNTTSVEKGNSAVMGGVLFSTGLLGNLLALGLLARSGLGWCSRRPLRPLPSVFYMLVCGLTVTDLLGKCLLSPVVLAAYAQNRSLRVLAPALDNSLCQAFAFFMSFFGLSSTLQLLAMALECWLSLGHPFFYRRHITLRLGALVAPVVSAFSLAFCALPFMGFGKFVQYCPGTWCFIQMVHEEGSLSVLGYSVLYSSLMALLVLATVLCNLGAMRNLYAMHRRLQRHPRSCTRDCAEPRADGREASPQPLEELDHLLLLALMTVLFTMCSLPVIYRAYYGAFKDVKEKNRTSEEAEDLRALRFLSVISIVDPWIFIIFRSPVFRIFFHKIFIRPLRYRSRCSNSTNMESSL
Method: as §1, §2, §3, §4

[3] = 0.001%, once daily for 5 days, at 50 h

T5 sequence (P35408 whole entry): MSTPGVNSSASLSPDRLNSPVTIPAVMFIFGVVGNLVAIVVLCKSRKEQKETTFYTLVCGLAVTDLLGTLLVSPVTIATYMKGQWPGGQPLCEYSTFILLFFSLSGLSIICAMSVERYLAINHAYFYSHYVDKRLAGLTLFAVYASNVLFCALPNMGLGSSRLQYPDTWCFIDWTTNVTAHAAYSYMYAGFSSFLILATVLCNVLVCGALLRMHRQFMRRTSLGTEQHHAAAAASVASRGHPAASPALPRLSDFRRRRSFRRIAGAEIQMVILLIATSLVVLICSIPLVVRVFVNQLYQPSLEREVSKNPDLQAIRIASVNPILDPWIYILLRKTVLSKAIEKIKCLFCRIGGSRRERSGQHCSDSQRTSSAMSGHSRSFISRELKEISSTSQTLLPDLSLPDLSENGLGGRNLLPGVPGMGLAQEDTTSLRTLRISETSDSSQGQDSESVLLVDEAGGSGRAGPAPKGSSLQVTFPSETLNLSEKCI
T4 sequence (P35408 whole entry): as above
T2 sequence (P43116 whole entry): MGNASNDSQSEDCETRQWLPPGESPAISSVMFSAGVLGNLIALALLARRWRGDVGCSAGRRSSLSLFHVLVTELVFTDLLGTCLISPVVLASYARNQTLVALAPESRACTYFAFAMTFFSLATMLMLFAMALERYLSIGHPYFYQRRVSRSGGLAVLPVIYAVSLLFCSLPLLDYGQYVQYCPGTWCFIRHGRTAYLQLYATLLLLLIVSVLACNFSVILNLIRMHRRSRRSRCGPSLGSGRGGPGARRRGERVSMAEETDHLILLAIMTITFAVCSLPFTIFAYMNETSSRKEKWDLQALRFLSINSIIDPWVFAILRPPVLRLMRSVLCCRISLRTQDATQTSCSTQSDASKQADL
T1 sequence (P43116 whole entry): as above

SMILES	EC50 (EP2 [1]) [nM]	EC50 (hEP2/Gqs5) [nM]	EC50 (hTP) [nM]	Ki (EP2 [2]) [nM]	EC50 (hEP4/Gqs5) [nM]	Ki (EP4 receptors) [nM]	maximum ocular surface hyperemia (OSH) score (normotensive dogs; 0.0001%, once daily for 5 days, at 74 h)	maximum ocular surface hyperemia (OSH) score (normotensive dogs; 0.0005%, once daily for 5 days, at 50 h)	maximum ocular surface hyperemia (OSH) score (normotensive dogs; [3])	maximum ocular surface hyperemia (OSH) score (normotensive dogs; 0.01%, once daily for 5 days, at 26 h)	maximum ocular surface hyperemia (OSH) score (normotensive dogs; 0.01%, once daily for 5 days, at 74 h)	EC50 (hDP/Gqs5) [nM]	maximum ocular surface hyperemia (OSH) score (normotensive dogs; 0.001%, once daily for 4 days, at 74 h)	maximum ocular surface hyperemia (OSH) score (normotensive dogs; 0.001%, once daily for 5 days, at 26 h)
O=C(O)c1ccc(CCC[C@@H]2[C@@H](CCc3cc(Cl)cc(Cl)c3)[C@H](O)C[C@H]2Cl)s1 [11a, 5-(3-((1R,2R,3R,5R)-5-chloro-2-(3,5-dichlorophenethyl)-3-hydroxycyclopentyl)propyl)thiophene-2-carboxylic acid]	0.09	18	> 10000	0.2	> 10000	616	0.8	1.75	1.8	2.5				
O=C(O)CCCCCC[C@@H]1[C@@H](CCc2cc(Cl)cc(Cl)c2)[C@H](O)C[C@H]1Cl [compound 6, 7-{(1R,2R,3R,5R)-5-Chloro-2-[2-(3,5-dichloro-phenyl)-ethyl]-3-hydroxy-cyclopentyl}-heptanoic acid]	0.8	3270	4620	22	10200	394					0.8			
Cc1cc(C)cc(CC[C@@H]2[C@@H](CCCc3ccc(C(=O)O)s3)[C@H](Cl)C[C@H]2O)c1 [11e, 5-(3-((1R,2R,3R,5R)-5-chloro-2-(3,5-dimethylphenethyl)-3-hydroxycyclopentyl)propyl)thiophene-2-carboxylic acid]	0.4	287		3	> 10000	966						15300		
O=C(O)c1ccc(CCC[C@@H]2[C@@H](CCc3cc(Cl)cc(CO)c3)[C@H](O)C[C@H]2Cl)s1 [11c, 5-(3-((1R,2R,3R,5R)-5-chloro-2-(3-chloro-5-(hydroxymethyl)phenethyl)-3-hydroxycyclopentyl)propyl)thiophene-2-carboxylic acid]	0.08	86		1	> 10000	437			0.8			2940		
O=C(O)c1ccc(CCC[C@@H]2[C@@H](CCc3cc(Cl)nc(Cl)c3)[C@H](O)C[C@H]2Cl)s1 [11b, 5-(3-((1R,2R,3R,5R)-5-chloro-2-(2-(2,6-dichloropyridin-4-yl)ethyl)-3-hydroxycyclopentyl)propyl)-thiophene-2-carboxylic acid]	0.05	13		1	> 10000	582							1.9	
CC(C)OC(=O)c1ccc(CCC[C@@H]2[C@@H](CCc3cc(Cl)cc(CO)c3)[C@H](O)C[C@H]2Cl)s1 [compound 18, Isopropyl 5-(3-((1R,2R,3R,5R)-5-chloro-2-(3-chloro-5-(hydroxymethyl)phenethyl)-3-hydroxycyclopentyl)propyl)thiophene-2-carboxylate]														0.9
OCc1ccc(CCC[C@@H]2[C@@H](CCc3cc(Cl)cc(Cl)c3)[C@H](O)C[C@H]2Cl)s1 [compound 13, (1R,2R,3R,4R)-4-chloro-2-(3,5-dichlorophenethyl)-3-(3-(5-(hydroxymethyl)thiophen-2-yl)propyl)cyclopentanol]	284	10200		502		> 10000								
